Test results reported in PubChem BioAssay (NCI).
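These data come from cells grown in 96-well plates and exposed to compound for 48 hours at five concentrations. GI50 is the concentration that inhibits growth by half. TGI marks complete inhibition of growth.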

Experiments:
Assay in all cases: growth of human tumour cells (NCI), 48 h
CCRF-CEM leukemia = system: CCRF-CEM leukemia
COLO 205 colon = system: COLO 205 colon
EKVX NSCLC = system: EKVX NSCLC
K-562 leukemia = system: K-562 leukemia
NCI-H226 lung = system: NCI-H226 lung
RXF 393 renal = system: RXF 393 renal
SF-268 CNS = system: SF-268 CNS
SN12C renal = system: SN12C renal
SW-620 colon = system: SW-620 colon
U251 CNS = system: U251 CNS

Compound	GI50 (CCRF-CEM leukemia)	TGI (CCRF-CEM leukemia)	GI50 (COLO 205 colon)	TGI (COLO 205 colon)	GI50 (EKVX NSCLC)	TGI (EKVX NSCLC)	GI50 (K-562 leukemia)	TGI (K-562 leukemia)	GI50 (NCI-H226 lung)	TGI (NCI-H226 lung)	GI50 (RXF 393 renal)	TGI (RXF 393 renal)	GI50 (SF-268 CNS)	TGI (SF-268 CNS)	GI50 (SN12C renal)	TGI (SN12C renal)	GI50 (SW-620 colon)	TGI (SW-620 colon)	GI50 (U251 CNS)	TGI (U251 CNS)
CC(=O)O[C@H]([C@H](OC(C)=O)[C@H](C)OC(C)=O)[C@@H](/C=C/[C@@H]1CC=CC(=O)O1)OC(C)=O	41.5 µM	> 100 µM	33.5 µM	> 100 µM	> 100 µM	> 100 µM	> 100 µM	> 100 µM	> 100 µM	> 100 µM	> 100 µM	> 100 µM	28.9 µM	> 100 µM	84.1 µM	> 100 µM	40 µM	> 100 µM	> 100 µM	> 100 µM
CCCCCCCCCCCCCCCCCc1nccn1CCOCCO	5.18 µg/mL	12.4 µg/mL	6.07 µg/mL	11.4 µg/mL	4.83 µg/mL	10.3 µg/mL	4.87 µg/mL	12.1 µg/mL	4.36 µg/mL	10 µg/mL	5.04 µg/mL	10.1 µg/mL	5.16 µg/mL	10.4 µg/mL	5.11 µg/mL	10.1 µg/mL	6.19 µg/mL	11.7 µg/mL	4.52 µg/mL	9.62 µg/mL
CC(=O)Nc1cc2cc(N)ccc2oc1=O		> 100 µM		> 100 µM		> 100 µM		> 100 µM		> 100 µM		> 100 µM		> 100 µM		> 100 µM		> 100 µM		> 100 µM
CCCCN1CCCC[C@@H]1C(=O)N[C@H](C(=O)N(C)[C@H](C[C@@H](OC(C)=O)c1nc(C(=O)NC2CCC(C(=O)OC)CC2)cs1)C(C)C)C(C)C (stereo not given in full)	1.1 µM	> 25 µM	1.26 µM	11.5 µM	1.15 µM	> 25 µM	0.691 µM	> 25 µM	3.84 µM	> 25 µM	0.995 µM	11.6 µM	2.29 µM	> 25 µM	2.15 µM	> 25 µM	1.06 µM	> 25 µM	1.18 µM	> 25 µM
O=C1C(=O)N(c2ccc(Cl)cc2)C(=O)C(=O)C1c1nc2ccccc2o1		> 100 µM		> 100 µM		> 100 µM		> 100 µM		> 100 µM		> 100 µM		> 100 µM		> 100 µM		> 100 µM		> 100 µM
N#Cc1ccc(Cc2ccccn2)cc1Cl		> 100 µM		> 100 µM		> 100 µM		> 100 µM		> 100 µM		> 100 µM		> 100 µM		> 100 µM		> 100 µM		> 100 µM
O=C(Nc1cccc2c1C(=O)c1c(NC(=O)c3ccccc3)ccc(Nc3cccc4c3C(=O)c3ccccc3C4=O)c1C2=O)c1ccccc1		> 100 µM		> 100 µM		> 100 µM		> 100 µM		> 100 µM		> 100 µM		> 100 µM		> 100 µM		> 100 µM		> 100 µM
O=C(CC1(O)C(=O)N(Cc2ccccc2)c2ccc(Cl)cc21)c1ccc(C(=O)NCC2CCC3(CC2)OOC2(CCCCC2)OO3)cc1 (stereo not given)	0.274 µM	0.662 µM	0.626 µM	1.66 µM	0.306 µM	1.08 µM	1.57 µM	> 100 µM	1.72 µM	9.06 µM	0.247 µM	0.608 µM	1.4 µM	3.67 µM	0.797 µM	2.38 µM	2.21 µM	5.88 µM	0.211 µM	0.426 µM
COc1cc(/C=C(\NC(=O)c2ccccc2)c2nc3ccc4c(c3[nH]2)C(=O)c2ccccc2C4=O)cc(OC)c1OC		> 100 µM		> 100 µM		> 100 µM		> 100 µM		> 100 µM		86.8 µM		> 100 µM		> 100 µM		> 100 µM		> 100 µM
CN(C)CCN1C(=O)c2cccc3cc([N+](=O)[O-])cc(c23)C1=O		0.798 µM		9.56 µM		2.68 µM		26.5 µM		0.436 µM		0.923 µM		3.12 µM		1.69 µM		3.7 µM		2 µM
Oc1ccc(Nc2ccc3ccccc3c2)cc1	7.69 µM	> 100 µM	17.5 µM	35.4 µM	3.66 µM	20.5 µM	2.96 µM	15.9 µM	19 µM	49.5 µM	24.1 µM	> 100 µM	4.94 µM	29.4 µM	10 µM	> 100 µM	5.86 µM	19.5 µM	4.83 µM	23.9 µM
O=C(CCl)NCCNc1nccc(Nc2ccc(S(=O)(=O)Nc3ccccn3)cc2)n1	2.19 µM	9.03 µM	3.22 µM	11.6 µM	3.15 µM	12.8 µM	2.57 µM	17 µM	3.34 µM	28.3 µM	2.61 µM	7.83 µM	2.63 µM	12.9 µM	2.85 µM	11.1 µM	2.49 µM	7.27 µM	1.21 µM	3.43 µM
